We go through 25 compounds from ChEMBL document CHEMBL3286360, “Tuning the antimicrobial pharmacophore to enable discovery of short lipopeptides with multiple modes of action” (Eur J Med Chem, 2014).

Values after ≈ are worked out from the molar mass of the structure shown. Active and inactive are the calls of the source. The rule behind the calls is not given here. Where a SMILES comes first, the peptide text is derived from it. The star is where a group is joined. Stearoyl = CCCCCCCCCCCCCCCCCC(=O)*; Myristoyl = CCCCCCCCCCCCCC(=O)*; Decanoyl = CCCCCCCCCC(=O)* Where only a bound is given, the exact number is not on record here.

Data set [1] concerns Escherichia coli. Kind of data set: Antimicrobial activity against Escherichia coli ATCC 25922 after 17 to 20 hrs by serial dilution method. The format is functional.
Data set [2] relates to Candida albicans. Kind of data set: Antimicrobial activity against Candida albicans ATCC 14053 after 17 to 20 hrs by serial dilution method. The format is functional.
The test system of data set [3] is Staphylococcus aureus. The data set is described as follows: Antimicrobial activity against Staphylococcus aureus ATCC 12600 after 17 to 20 hrs by serial dilution method. Format: functional.
For data set [4], the system named is Priestia megaterium. Kind of data set: Binding affinity to Bacillus megaterium pHis1525 DNA at 25 to 50 ug/ml after 30 mins by agarose gel electrophoresis.
Data set [5] can be described thus: Cytotoxicity in human erythrocytes assessed as hemolysis at 250 ug/ml after 1 hr relative to control. Format: cell-based, Erythrocyte. The note with it: read-out: Activity.
A short description of data set [6]: Cytotoxicity in human erythrocytes assessed as hemolysis at 125 ug/ml after 1 hr relative to control. The format is cell-based, Erythrocyte. Particulars: read-out: Activity.

Consider `CCCCCCCCCC(=O)N[C@@H](CCCCN)C(=O)N[C@@H](Cc1c[nH]c2ccccc12)C(=O)N[C@@H](CCCCN)C(=O)N[C@@H](Cc1c[nH]c2ccccc12)C(N)=O` (Decanoyl-KWKW-NH2), for which the MIC came to 7.8 µg/mL (≈ 9.75 µM) in data set [1], 31.2 µg/mL (≈ 39 µM) in data set [2] and 7.8 µg/mL (≈ 9.75 µM) in data set [3]. For the same compound, in data set [4], the outcome was Active.

Take `CCCCCCCCCC(=O)N[C@@H](CCCCN)C(=O)N[C@@H](Cc1c[nH]c2ccccc12)C(=O)N[C@@H](CCCCN)C(N)=O` (Decanoyl-Lys-Trp-Lys-NH2): the MIC in data set [1] is more than 31.2 µg/mL; in data set [2], more than 62.5 µg/mL; in data set [3], 31.2 µg/mL (≈ 50.8 µM). Besides, in data set [5], the hemolysis at 1 h, 250 ug/ml was less than 10%.

In the case of `CCCCCCCCCC(=O)N[C@@H](CCCNC(=N)N)C(=O)N[C@H](C(=O)N[C@@H](CCCCN)C(=O)N[C@@H](Cc1c[nH]c2ccccc12)C(=O)N[C@@H](Cc1c[nH]c2ccccc12)C(=O)N[C@@H](CCCCN)C(N)=O)[C@@H](C)CC` (Decanoyl-RIKWWK-NH2), the minimal inhibitory concentration (MIC) in data set [1] is 7.8 µg/mL (≈ 7.29 µM); in data set [2], more than 62.5 µg/mL; in data set [3], 3.9 µg/mL (≈ 3.65 µM). Moreover, in data set [4], the result was Active.

As for `CCCCCCCCCCCCCC(=O)N[C@@H](CCCCN)C(=O)N[C@@H](Cc1c[nH]c2ccccc12)C(=O)N[C@@H](CCCCN)C(=O)N[C@@H](Cc1c[nH]c2ccccc12)C(N)=O` (Myristoyl-KWKW-NH2), the MIC in data set [1] was 7.8 µg/mL (≈ 9.11 µM); in data set [2] it was more than 62.5 µg/mL; in data set [3], 3.9 µg/mL (≈ 4.56 µM). Also, the hemolysis at 1 h, 125 ug/ml in data set [6] amounted to 17%.

For `CCCCCCCCCCCCCC(=O)N[C@@H](CCCCN)C(=O)N[C@@H](Cc1c[nH]c2ccccc12)C(=O)N[C@@H](Cc1c[nH]c2ccccc12)C(=O)N[C@@H](CCCCN)C(N)=O` (Myristoyl-KWWK-NH2), the minimal inhibitory concentration (MIC) in data set [1] is 7.8 µg/mL (≈ 9.11 µM); in data set [2], 15.6 µg/mL (≈ 18.2 µM); in data set [3], 3.9 µg/mL (≈ 4.56 µM). Besides, in data set [6], the hemolysis at 1 h, 125 ug/ml came out at 56%.

`CCCCCCCCCCCCCC(=O)N[C@@H](CCCCN)C(=O)N[C@@H](Cc1c[nH]c2ccccc12)C(=O)N[C@@H](CCCCN)C(N)=O` (Myristoyl-Lys-Trp-Lys-NH2): the MIC in data set [1] is 7.8 µg/mL (≈ 11.6 µM); in data set [2] it was more than 62.5 µg/mL; in data set [3], 7.8 µg/mL (≈ 11.6 µM). For the same compound, the hemolysis at 1 h, 125 ug/ml in data set [6] is 11%. The hemolysis at 1 h, 250 ug/ml in data set [5] came to 19%.

As to `CCCCCCCCCCCCCC(=O)N[C@@H](CCCNC(=N)N)C(=O)N[C@H](C(=O)N[C@@H](CCCCN)C(=O)N[C@@H](Cc1c[nH]c2ccccc12)C(=O)N[C@@H](CCCCN)C(N)=O)[C@@H](C)CC` (Myristoyl-RIKWK-NH2), the MIC in data set [1] is 15.6 µg/mL (≈ 16.6 µM); in data set [2] it was more than 62.5 µg/mL; in data set [3], 15.6 µg/mL (≈ 16.6 µM). For the same compound, the hemolysis at 1 h, 250 ug/ml in data set [5] is 20%.

For the compound `CCCCCCCCCCCCCC(=O)N[C@@H](CCCNC(=N)N)C(=O)N[C@@H](Cc1c[nH]c2ccccc12)C(=O)N[C@@H](Cc1c[nH]c2ccccc12)C(=O)N[C@@H](CCCNC(=N)N)C(N)=O` (Myristoyl-RWWR-NH2), the MIC in data set [1] was 15.6 µg/mL (≈ 17.1 µM); in data set [2], more than 62.5 µg/mL; in data set [3], 7.8 µg/mL (≈ 8.55 µM).

As for `CCCCCCCCCCCCCCCCCC(=O)N[C@@H](CCCNC(=N)N)C(=O)N[C@@H](Cc1c[nH]c2ccccc12)C(=O)N[C@@H](CCCNC(=N)N)C(N)=O` (Stearoyl-Arg-Trp-Arg-NH2), the figures for the MIC in data set [1], in data set [2] and in data set [3] were more than 31.2 µg/mL, more than 62.5 µg/mL and more than 31.2 µg/mL, respectively.

As for `CCCCCCCCCCCCCCCCCC(=O)N[C@@H](CCCCN)C(=O)N[C@H](C(=O)N[C@@H](CCCCN)C(=O)N[C@@H](CCCNC(=N)N)C(=O)N[C@@H](Cc1c[nH]c2ccccc12)C(=O)N[C@@H](CCCNC(=N)N)C(N)=O)[C@@H](C)CC` (Stearoyl-KIKRWR-NH2), the figures for the MIC in data set [1], in data set [2] and in data set [3] were more than 31.2 µg/mL, more than 62.5 µg/mL and more than 31.2 µg/mL, respectively.

`CCCCCCCCCCCCCCCCCC(=O)N[C@@H](CCCCN)C(=O)N[C@H](C(=O)N[C@@H](CCCCN)C(=O)N[C@@H](CCCNC(=N)N)C(=O)N[C@@H](Cc1c[nH]c2ccccc12)C(=O)N[C@@H](Cc1c[nH]c2ccccc12)C(=O)N[C@@H](CCCNC(=N)N)C(N)=O)[C@@H](C)CC` (Stearoyl-KIKRWWR-NH2): the MIC in data set [1] is more than 31.2 µg/mL; in data set [2], more than 62.5 µg/mL; in data set [3] it was more than 31.2 µg/mL.

For `CCCCCCCCCCCCCCCCCC(=O)N[C@@H](CCCCN)C(=O)N[C@H](C(=O)N[C@@H](CCCNC(=N)N)C(=O)N[C@@H](Cc1c[nH]c2ccccc12)C(=O)N[C@@H](Cc1c[nH]c2ccccc12)C(=O)N[C@@H](CCCNC(=N)N)C(N)=O)[C@@H](C)CC` (Stearoyl-KIRWWR-NH2), the MIC is more than 31.2 µg/mL in data set [1], more than 62.5 µg/mL in data set [2] and more than 31.2 µg/mL in data set [3].

Regarding `CCCCCCCCCCCCCCCCCC(=O)N[C@@H](CCCCN)C(=O)N[C@H](C(=O)N[C@@H](Cc1c[nH]c2ccccc12)C(=O)N[C@@H](Cc1c[nH]c2ccccc12)C(=O)N[C@@H](CCCCN)C(N)=O)[C@@H](C)CC` (Stearoyl-KIWWK-NH2), the MIC in data set [1] is more than 31.2 µg/mL; in data set [2], more than 62.5 µg/mL; in data set [3], more than 31.2 µg/mL.

Turning to `CCCCCCCCCCCCCCCCCC(=O)N[C@@H](CCCCN)C(=O)N[C@@H](CCCCN)C(=O)N[C@H](C(=O)N[C@@H](CCCNC(=N)N)C(=O)N[C@@H](Cc1c[nH]c2ccccc12)C(=O)N[C@@H](CCCNC(=N)N)C(N)=O)[C@@H](C)CC` (Stearoyl-KKIRWR-NH2), the MIC in data set [1] was more than 31.2 µg/mL; in data set [2] it was more than 62.5 µg/mL; in data set [3] it was 15.6 µg/mL (≈ 13.5 µM).

Take `CCCCCCCCCCCCCCCCCC(=O)N[C@@H](CCCCN)C(=O)N[C@@H](CCCCN)C(=O)N[C@@H](Cc1c[nH]c2ccccc12)C(=O)N[C@@H](CCCCN)C(N)=O` (Stearoyl-KKWK-NH2): the MIC in data set [1], in data set [2] and in data set [3] was 31.2 µg/mL (≈ 36.5 µM) each time.

For `CCCCCCCCCCCCCCCCCC(=O)N[C@@H](CCCCN)C(=O)N[C@@H](CCCCN)C(=O)N[C@@H](Cc1c[nH]c2ccccc12)C(=O)N[C@@H](Cc1c[nH]c2ccccc12)C(N)=O` (Stearoyl-KKWW-NH2), the results for the MIC in data set [1], in data set [2] and in data set [3] were more than 31.2 µg/mL, more than 62.5 µg/mL and more than 31.2 µg/mL, respectively.

In the case of `CCCCCCCCCCCCCCCCCC(=O)N[C@@H](CCCCN)C(=O)N[C@@H](CCCNC(=N)N)C(=O)N[C@H](C(=O)N[C@@H](Cc1c[nH]c2ccccc12)C(=O)N[C@@H](Cc1c[nH]c2ccccc12)C(=O)N[C@@H](CCCNC(=N)N)C(N)=O)[C@@H](C)CC` (Stearoyl-KRIWWR-NH2), the MIC was more than 31.2 µg/mL in data set [1], more than 62.5 µg/mL in data set [2] and 15.6 µg/mL (≈ 12.9 µM) in data set [3].

For `CCCCCCCCCCCCCCCCCC(=O)N[C@@H](CCCCN)C(=O)N[C@@H](Cc1c[nH]c2ccccc12)C(=O)N[C@@H](CCCCN)C(=O)N[C@@H](Cc1c[nH]c2ccccc12)C(N)=O` (Stearoyl-KWKW-NH2), the MIC in data set [1] was more than 31.2 µg/mL; in data set [2], more than 62.5 µg/mL; in data set [3] it was more than 31.2 µg/mL.

On to `CCCCCCCCCCCCCCCCCC(=O)N[C@@H](CCCCN)C(=O)N[C@@H](Cc1c[nH]c2ccccc12)C(=O)N[C@@H](Cc1c[nH]c2ccccc12)C(=O)N[C@@H](CCCCN)C(N)=O` (Stearoyl-KWWK-NH2), for which the MIC is more than 31.2 µg/mL in data set [1], more than 62.5 µg/mL in data set [2] and more than 31.2 µg/mL in data set [3].

For `CCCCCCCCCCCCCCCCCC(=O)N[C@@H](CCCCN)C(=O)N[C@@H](Cc1c[nH]c2ccccc12)C(=O)N[C@@H](CCCCN)C(N)=O` (Stearoyl-Lys-Trp-Lys-NH2), the minimum inhibitory concentration (MIC) in data set [1] is more than 31.2 µg/mL; in data set [2] it was more than 62.5 µg/mL; in data set [3] it was 31.2 µg/mL (≈ 43 µM).

In the case of `CCCCCCCCCCCCCCCCCC(=O)N[C@@H](CCCNC(=N)N)C(=O)N[C@H](C(=O)N[C@@H](CCCCN)C(=O)N[C@@H](Cc1c[nH]c2ccccc12)C(=O)N[C@@H](CCCCN)C(N)=O)[C@@H](C)CC` (Stearoyl-RIKWK-NH2), the MIC in data set [1] is more than 31.2 µg/mL; in data set [2], more than 62.5 µg/mL; in data set [3], more than 31.2 µg/mL.

Take `CCCCCCCCCCCCCCCCCC(=O)N[C@@H](CCCNC(=N)N)C(=O)N[C@H](C(=O)N[C@@H](CCCCN)C(=O)N[C@@H](Cc1c[nH]c2ccccc12)C(=O)N[C@@H](Cc1c[nH]c2ccccc12)C(=O)N[C@@H](CCCCN)C(N)=O)[C@@H](C)CC` (Stearoyl-RIKWWK-NH2): the MIC in data set [1] is more than 31.2 µg/mL; in data set [2], more than 62.5 µg/mL; in data set [3], 31.2 µg/mL (≈ 26.4 µM).

On to `CCCCCCCCCCCCCCCCCC(=O)N[C@@H](CCCNC(=N)N)C(=O)N[C@@H](CCCCN)C(=O)N[C@@H](Cc1c[nH]c2ccccc12)C(=O)N[C@@H](Cc1c[nH]c2ccccc12)C(=O)N[C@@H](CCCCN)C(N)=O` (Stearoyl-RKWWK-NH2), for which the results for the MIC in data set [1], in data set [2] and in data set [3] were 125 µg/mL (≈ 117 µM), more than 62.5 µg/mL and 31.2 µg/mL (≈ 29.2 µM), respectively.

For `CCCCCCCCCCCCCCCCCC(=O)N[C@@H](CCCNC(=N)N)C(=O)N[C@@H](Cc1c[nH]c2ccccc12)C(=O)N[C@@H](CCCNC(=N)N)C(=O)N[C@@H](Cc1c[nH]c2ccccc12)C(N)=O` (Stearoyl-RWRW-NH2), the MIC is more than 31.2 µg/mL in data set [1], more than 62.5 µg/mL in data set [2] and more than 31.2 µg/mL in data set [3].

Turning to `CCCCCCCCCCCCCCCCCC(=O)N[C@@H](CCCNC(=N)N)C(=O)N[C@@H](Cc1c[nH]c2ccccc12)C(=O)N[C@@H](Cc1c[nH]c2ccccc12)C(=O)N[C@@H](CCCNC(=N)N)C(N)=O` (Stearoyl-RWWR-NH2), the MIC in data set [1] was more than 31.2 µg/mL; in data set [2] it was more than 62.5 µg/mL; in data set [3] it was 31.2 µg/mL (≈ 32.2 µM).
